Activity calls are given as the source filed them.
Experiments:
[1] = target: T1, Protein Tat (Human immunodeficiency virus type 1 group M subtype B (isolate HXB2)(HIV-1), UniProt P04608); type: functional;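 further: tat binding to TAR RNA read out by fluorescence polarization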
T1 sequence (P04608 whole entry): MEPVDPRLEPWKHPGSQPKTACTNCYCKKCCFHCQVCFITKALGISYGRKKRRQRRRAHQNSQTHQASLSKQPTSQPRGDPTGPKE

[2] = target: T2, Aminopeptidase N (Plasmodium falciparum FcB1/Columbia, UniProt O96935); assay: malaria alanyl aminopeptidase activity blockers – biochemical, fluorogenic H-Leu-NHMec substrate, 1536-well (AID 1445); parameters: species or system Plasmodium falciparum 3D7, 3D7
T2 sequence (O96935 whole entry): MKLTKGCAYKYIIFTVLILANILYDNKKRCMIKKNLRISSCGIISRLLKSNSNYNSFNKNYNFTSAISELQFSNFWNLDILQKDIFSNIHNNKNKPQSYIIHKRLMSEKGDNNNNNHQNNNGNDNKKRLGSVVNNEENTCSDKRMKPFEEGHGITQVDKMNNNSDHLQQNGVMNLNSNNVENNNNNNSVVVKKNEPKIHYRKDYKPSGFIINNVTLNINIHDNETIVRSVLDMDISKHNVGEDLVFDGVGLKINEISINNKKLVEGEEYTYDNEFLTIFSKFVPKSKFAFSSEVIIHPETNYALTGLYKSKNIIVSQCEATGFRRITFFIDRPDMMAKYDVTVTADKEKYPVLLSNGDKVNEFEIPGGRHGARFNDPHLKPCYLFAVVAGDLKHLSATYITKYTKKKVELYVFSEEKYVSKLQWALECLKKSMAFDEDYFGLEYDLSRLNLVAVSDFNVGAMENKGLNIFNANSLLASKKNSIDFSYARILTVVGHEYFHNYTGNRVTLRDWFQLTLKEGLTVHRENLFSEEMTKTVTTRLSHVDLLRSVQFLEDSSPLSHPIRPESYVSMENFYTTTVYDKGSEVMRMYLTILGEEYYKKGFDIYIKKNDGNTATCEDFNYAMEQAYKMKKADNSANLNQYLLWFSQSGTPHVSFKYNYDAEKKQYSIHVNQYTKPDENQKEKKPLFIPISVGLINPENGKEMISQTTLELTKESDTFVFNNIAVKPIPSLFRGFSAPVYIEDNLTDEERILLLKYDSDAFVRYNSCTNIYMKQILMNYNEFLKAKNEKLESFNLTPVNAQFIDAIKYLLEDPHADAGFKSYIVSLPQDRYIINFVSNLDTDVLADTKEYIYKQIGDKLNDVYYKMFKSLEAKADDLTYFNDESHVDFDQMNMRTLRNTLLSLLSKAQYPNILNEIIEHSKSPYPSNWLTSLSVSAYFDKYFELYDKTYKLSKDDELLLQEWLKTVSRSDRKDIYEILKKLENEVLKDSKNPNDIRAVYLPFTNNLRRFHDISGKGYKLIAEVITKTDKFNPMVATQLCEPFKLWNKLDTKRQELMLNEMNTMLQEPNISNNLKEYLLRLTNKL

[3] = non-specific 3'UTR reporter inhibition in Clone20-Shn3RL – cell-based, Renilla luciferase, cherry-picked, counter-screen for Shn3 inhibitor project, dose response (AID 624133); type: functional
[4] = loss of viability in HepG2 cells – cell-based, CellTiter-Glo, cherry-picked, cytotoxicity control for Shn3 inhibitor project, dose response (AID 624134); type: functional
[5] = reduction of Shn3 3'UTR-driven luciferase in osteoblasts – cell-based, Clone20 osteoblasts, firefly luciferase, cherry-picked, dose response (AID 624132); type: functional;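 further: firefly luciferase luminescence from reporter carrying the Shn3 3'UTR in osteoblasts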
[6] = NIH3T3 cell viability loss – ATP luminescence, mouse fibroblasts, counter-screen, dose response (AID 2010); type: functional, cell-based;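 further: cells exposed to compound for about 90 hours before reading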
[7] = Trypanosoma cruzi growth suppression in host cells – NIH3T3 host cells, beta-gal luminescence, confirmation (AID 2044); type: functional, cell-based;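 further: intracellular parasites grown in NIH/3T3 mouse fibroblasts as host cells; luminescent beta-galactosidase reporter signal from transgenic T. cruzi replicating inside host cells; inhibitors lower the luminescence signal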
[8] = target: Heat shock protein HSP 90-alpha (Homo sapiens, UniProt P07900); type: functional, organism-based
[9] = nonselective StAR promoter luciferase inhibitors – cell-based, luminescence, luciferase reporter, counter-screen for LRH-1 inverse agonist project, dose response (AID 651969); type: functional
[10] = target: Steroidogenic factor 1 (Homo sapiens, UniProt Q13285); assay: Counterscreen for inverse agonists of the liver receptor homolog-1 (LRH-1; NR5A2): Luminescence-based cell-based high throughput dose response assay to identify inverse agonists of the Steroidogenic Factor 1 Nuclear Receptor (SF1; NR5A1).; type: functional
[11] = target: Nuclear receptor subfamily 5 group A member 2 (Homo sapiens, UniProt O00482); type: functional, cell-based;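 further: HEK293T cells transfected with LRH-1 and a StAR promoter luciferase reporter; potency for inhibitors that lower LRH-1 driven reporter light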
[12] = target: Paired box protein Pax-8 (Homo sapiens, UniProt Q06710); assay: PAX8 transcriptional activity inhibition in RMG-I – RMG-I cells, luciferase, cherry-pick, dose response (AID 687027); type: functional, cell-based;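 further: luciferase reporter driven by Pax8 target thyroperoxidase promoter measured by SteadyGlo luminescence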
[13] = target: T3, Caspase-6 (Homo sapiens, UniProt P55212); assay: inhibition of CASP6 peptide cleavage – biochemical, VEID-R110 fluorescence, cherry-pick, dose response (AID 720632)
T3 sequence (P55212 whole entry): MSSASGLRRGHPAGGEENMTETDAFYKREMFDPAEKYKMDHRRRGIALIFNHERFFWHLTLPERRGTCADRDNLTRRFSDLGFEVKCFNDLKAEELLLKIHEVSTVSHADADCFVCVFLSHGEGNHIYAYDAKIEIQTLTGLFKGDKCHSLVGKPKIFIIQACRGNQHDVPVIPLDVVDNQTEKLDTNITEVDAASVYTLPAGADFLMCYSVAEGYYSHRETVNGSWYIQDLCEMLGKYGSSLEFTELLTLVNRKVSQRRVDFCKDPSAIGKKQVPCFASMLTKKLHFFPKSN

Chain of Nuclear receptor subfamily 5 group A member 2 (O00482 whole entry): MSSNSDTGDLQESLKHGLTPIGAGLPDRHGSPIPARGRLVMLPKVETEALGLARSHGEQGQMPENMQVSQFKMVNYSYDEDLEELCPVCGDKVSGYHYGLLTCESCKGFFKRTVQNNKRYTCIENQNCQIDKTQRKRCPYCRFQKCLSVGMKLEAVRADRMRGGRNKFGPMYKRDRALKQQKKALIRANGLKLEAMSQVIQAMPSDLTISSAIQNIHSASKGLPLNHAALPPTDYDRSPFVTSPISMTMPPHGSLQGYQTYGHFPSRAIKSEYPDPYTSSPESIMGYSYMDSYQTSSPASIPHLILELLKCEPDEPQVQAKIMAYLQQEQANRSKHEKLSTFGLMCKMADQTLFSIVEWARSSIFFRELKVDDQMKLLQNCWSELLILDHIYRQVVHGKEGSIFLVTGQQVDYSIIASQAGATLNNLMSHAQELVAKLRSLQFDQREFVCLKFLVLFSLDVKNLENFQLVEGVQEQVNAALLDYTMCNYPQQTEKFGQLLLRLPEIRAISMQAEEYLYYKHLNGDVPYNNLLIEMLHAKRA
Chain of Steroidogenic factor 1 (Q13285 whole entry): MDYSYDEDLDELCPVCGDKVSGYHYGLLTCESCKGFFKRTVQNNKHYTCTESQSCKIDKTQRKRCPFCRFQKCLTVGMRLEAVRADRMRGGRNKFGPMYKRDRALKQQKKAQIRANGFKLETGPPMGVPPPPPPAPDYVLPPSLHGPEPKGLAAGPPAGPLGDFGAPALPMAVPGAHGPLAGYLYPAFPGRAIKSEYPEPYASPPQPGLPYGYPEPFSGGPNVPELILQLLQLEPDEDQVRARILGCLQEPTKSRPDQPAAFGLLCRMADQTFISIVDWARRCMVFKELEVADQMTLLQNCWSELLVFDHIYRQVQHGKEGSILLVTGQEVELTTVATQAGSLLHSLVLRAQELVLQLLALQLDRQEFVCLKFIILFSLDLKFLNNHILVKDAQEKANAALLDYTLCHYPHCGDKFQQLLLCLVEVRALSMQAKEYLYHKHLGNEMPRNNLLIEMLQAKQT
Chain of Paired box protein Pax-8 (Q06710 whole entry): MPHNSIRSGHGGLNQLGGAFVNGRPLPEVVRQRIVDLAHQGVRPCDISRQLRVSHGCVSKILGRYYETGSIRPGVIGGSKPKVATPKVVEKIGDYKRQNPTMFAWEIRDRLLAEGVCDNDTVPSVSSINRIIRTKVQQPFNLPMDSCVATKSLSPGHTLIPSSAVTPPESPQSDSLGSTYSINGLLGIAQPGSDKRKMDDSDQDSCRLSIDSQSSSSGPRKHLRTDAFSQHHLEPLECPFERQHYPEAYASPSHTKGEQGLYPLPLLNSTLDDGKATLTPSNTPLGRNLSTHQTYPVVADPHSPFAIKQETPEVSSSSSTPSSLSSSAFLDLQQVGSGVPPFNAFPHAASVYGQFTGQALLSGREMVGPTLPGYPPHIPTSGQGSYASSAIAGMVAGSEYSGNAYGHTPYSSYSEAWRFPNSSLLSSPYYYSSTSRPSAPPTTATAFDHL

Q: Which IC50 [1] does the source give for `CCOC(=O)c1nn(-c2ccc(Cl)cc2Cl)c(=N)c(C#N)c1C` here?
A: > 100 µM (active)

Q: With `C=CCn1c(CNC(=O)c2ccccc2F)nnc1SCC(=O)NC(C)c1ccccc1` (stereo unspecified) as the compound, how does the IC50 [2] read?
A: 103 µM (active)

Q: With `NS(=O)(=O)c1ccc(CCNCc2cc(Cl)ccc2OCc2ccccc2)cc1` as the compound, how does the AC50 [3] read?
A: 7.31 µM (active)

Q: What about the AC50 [4] of the same compound?
A: 46.9 µM (active)

Q: What about the AC50 [5] of the same compound?
A: 4.46 µM (active)

Q: For `Cc1ccccc1S(=O)(=O)Nc1ncnc2scc(-c3ccccc3)c12`, which IC50 [2] is on record?
A: 24.3 µM (active)

Q: For `CCC(C)(C)n1nnnc1C(c1cccnc1)N1CCC(Cc2ccccc2)CC1` (stereo unspecified), which EC50 [6] is on record?
A: 49 µM (active)

Q: What about the EC50 [7] of the same compound?
A: 0.151 µM (active)

Q: What about the AC50 [8] of the same compound?
A: 1.09 µM (active)

Q: With `O=C(NN1C(=O)c2ccccc2NC1c1ccoc1)c1ccccc1` (stereo unspecified) as the compound, how does the IC50 [2] read?
A: 46.5 µM (active)

Q: What does the source list for `Cc1cc(C)c2nc(NC(=O)c3ccc([N+](=O)[O-])o3)sc2c1`?
A: IC50 [9]: 35.9 µM (inactive); IC50 [10]: 0.148 µM (active); IC50 [11]: 35.9 µM (inactive)

Q: Which results are given for `CC(C)OC(=O)c1ccc(NCc2cc(O)ccc2O)cc1`?
A: AC50 [3]: 5.28 µM (active); AC50 [4]: 7.81 µM (active); AC50 [8]: 25 µM (active); AC50 [5]: 1.9 µM (active)

Q: Which results are given for `Cc1cc(OCC(=O)N2CCC(O)CC2)c2c(C)cc(=O)oc2c1`?
A: IC50 [9]: 35.9 µM (inactive); IC50 [10]: 11.2 µM (inactive); IC50 [11]: 19 µM (inactive)

Q: Which AC50 [8] does the source give for `Cc1cccc(N2CCN(S(=O)(=O)c3c(C)noc3/C=C/N(C)C)CC2)c1C` here?
A: 4.74 µM (active)

Q: For `CCCCCCN1C[C@@H](n2cc(-c3ccc(F)cc3)nn2)[C@H](O)C[C@@H]1c1ccc(Cl)cc1`, which AC50 [12] is on record?
A: 9.71 µM (active)

Q: And the AC50 [3]?
A: 21.5 µM (active)

Q: What about the AC50 [4] of the same compound?
A: 41.6 µM (active)

Q: What about the AC50 [5] of the same compound?
A: 12.5 µM (active)

Q: Which AC50 [13] does the source give for `O=C(COC(=O)c1ccc([N+](=O)[O-])o1)NCCc1ccccc1` here?
A: 42.2 µM (active)

Reference: ChEMBL document CHEMBL1201862, “PubChem BioAssay data set” (2004)
